Literature values, collected in patent US5658892A, “Compound delivery using high-pressure impulse transients” (The General Hospital Corporation, priority 1995, dated 1997).

Test system: prostate tumors
Settings: rats, Holmes et al. 1990

In the case of `N.N.[Cl][Pt][Cl]` [cisplatinum], the tumor growth (combined with high-pressure, short-duration waves) is listed as “delayed tumor growth was achieved” and the “animal mortality (relative to cisplatinum alone)” value (combined with shock wave therapy) is listed as “an increase in animal mortality”.
